According to ChEMBL document CHEMBL1201862, “PubChem BioAssay data set” (2004):
Activity calls are given as the source filed them.

Experiments:
[1] = biological target: T1, Insulin-degrading enzyme (Homo sapiens, UniProt P14735); test: cellular IDE activation of Abeta substrate cleavage – fluorescence polarization, HEK cells, dose response (AID 588439); format: functional, cell-based
T1 sequence (P14735 whole entry): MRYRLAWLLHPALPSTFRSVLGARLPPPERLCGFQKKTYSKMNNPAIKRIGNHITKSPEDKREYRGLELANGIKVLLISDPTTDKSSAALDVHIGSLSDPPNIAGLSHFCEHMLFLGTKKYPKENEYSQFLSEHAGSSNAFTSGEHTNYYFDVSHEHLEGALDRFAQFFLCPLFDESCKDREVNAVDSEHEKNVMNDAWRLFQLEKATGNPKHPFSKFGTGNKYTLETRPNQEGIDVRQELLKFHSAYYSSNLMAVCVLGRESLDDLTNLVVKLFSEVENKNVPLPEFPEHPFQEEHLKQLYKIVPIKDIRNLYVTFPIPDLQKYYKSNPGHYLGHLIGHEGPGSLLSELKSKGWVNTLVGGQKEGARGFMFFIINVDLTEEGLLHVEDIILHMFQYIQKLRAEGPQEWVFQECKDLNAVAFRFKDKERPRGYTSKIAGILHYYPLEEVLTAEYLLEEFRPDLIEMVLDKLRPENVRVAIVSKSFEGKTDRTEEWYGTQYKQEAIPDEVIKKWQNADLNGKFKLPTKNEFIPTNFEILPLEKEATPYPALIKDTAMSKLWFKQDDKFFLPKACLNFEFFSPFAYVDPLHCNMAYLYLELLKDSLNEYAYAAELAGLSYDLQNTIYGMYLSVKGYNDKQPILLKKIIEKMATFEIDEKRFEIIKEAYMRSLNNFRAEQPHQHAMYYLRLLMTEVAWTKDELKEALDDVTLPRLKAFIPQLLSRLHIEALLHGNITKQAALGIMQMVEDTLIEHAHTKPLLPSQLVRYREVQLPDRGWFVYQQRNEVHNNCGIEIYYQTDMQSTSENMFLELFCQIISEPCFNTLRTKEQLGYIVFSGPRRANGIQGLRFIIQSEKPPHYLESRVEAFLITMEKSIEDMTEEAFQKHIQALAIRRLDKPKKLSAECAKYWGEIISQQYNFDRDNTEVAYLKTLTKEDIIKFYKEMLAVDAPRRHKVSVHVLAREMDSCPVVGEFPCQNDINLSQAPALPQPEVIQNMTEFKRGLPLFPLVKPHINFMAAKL

[2] = biological target: T1, Insulin-degrading enzyme; test: recombinant IDE activation, cell-free – biochemical, fluorescence polarization, counter-screen for IDE activator project, dose response (AID 588681)
[3] = tested on: HEK293; test: optical interference in Abeta FP readout, dose response, artefact control for IDE activator project, biochemical, fluorescence polarization (AID 588442); format: functional, cell-based; conditions: Homo sapiens
[4] = tested on: HEK293; test: membrane integrity loss in HEK cells – cell-based, fluorescence, cytotoxicity control for IDE activator project, dose response (AID 588440); format: functional; conditions: Homo sapiens;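 note: cytotoxicity by LDH release measuring loss of membrane integrity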
[5] = tested on: CHO-K1; test: Counterscreen for antagonists of the orexin 1 receptor (OX1R; HCRTR1): Homogeneous time resolved fluorescence (HTRF)-based cell-based dose response assay to identify antagonists of the parental CHO-K1 cell line. [Related pubchem assays (depositor defined):AID434989, AID435008, AID463079, AID485270, AID492963, AID492964, AID492965, AID493232, AID504699, AID504701]; format: functional; conditions: Cricetulus griseus;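 note: potency for inhibition of ATP-stimulated IP1 production as antagonists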
[6] = Counterscreen for antagonists of the orexin 1 receptor (OX1R; HCRTR1): Fluorescence-based cell-based high throughput dose response assay to identify antagonists of the parental CHO cell line. [Related pubchem assays (depositor defined):AID434989, AID435008, AID463079, AID485270, AID492963, AID492964, AID492965, AID493232, AID504699, AID504701]; format: functional
[7] = biological target: T2, Orexin/Hypocretin receptor type 1 (Homo sapiens, UniProt O43613); test: Fluorescence-based cell-based high throughput dose response assay for antagonists of the orexin 1 receptor (OX1R; HCRTR1). [Related pubchem assays (depositor defined):AID434989, AID435008, AID463079, AID485270, AID492963, AID492964, AID492965, AID493232, AID504717, AID504718]; format: functional
T2 sequence (O43613 whole entry): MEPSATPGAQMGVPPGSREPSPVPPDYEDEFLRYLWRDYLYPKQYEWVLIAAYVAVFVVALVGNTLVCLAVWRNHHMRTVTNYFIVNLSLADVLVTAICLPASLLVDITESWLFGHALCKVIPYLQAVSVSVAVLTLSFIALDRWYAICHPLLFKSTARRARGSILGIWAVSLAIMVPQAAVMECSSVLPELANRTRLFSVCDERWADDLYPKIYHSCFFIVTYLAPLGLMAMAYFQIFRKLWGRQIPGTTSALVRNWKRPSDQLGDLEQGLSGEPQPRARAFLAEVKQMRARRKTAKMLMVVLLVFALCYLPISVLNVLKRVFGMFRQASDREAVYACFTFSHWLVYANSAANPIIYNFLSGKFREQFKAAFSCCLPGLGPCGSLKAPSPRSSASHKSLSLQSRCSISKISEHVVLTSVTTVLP

[8] = biological target: T3, Orexin receptor type 2 (Homo sapiens, UniProt O43614); test: Counterscreen assay for antagonists of the orexin 1 receptor (OX1R; HCRTR1): Homogeneous Time Resolved Fluorescence (HTRF)-based cell-based dose response assay for antagonists of the orexin 2 receptor (OX2R; HCRTR2), run by assay provider.; format: functional
T3 sequence (O43614 whole entry): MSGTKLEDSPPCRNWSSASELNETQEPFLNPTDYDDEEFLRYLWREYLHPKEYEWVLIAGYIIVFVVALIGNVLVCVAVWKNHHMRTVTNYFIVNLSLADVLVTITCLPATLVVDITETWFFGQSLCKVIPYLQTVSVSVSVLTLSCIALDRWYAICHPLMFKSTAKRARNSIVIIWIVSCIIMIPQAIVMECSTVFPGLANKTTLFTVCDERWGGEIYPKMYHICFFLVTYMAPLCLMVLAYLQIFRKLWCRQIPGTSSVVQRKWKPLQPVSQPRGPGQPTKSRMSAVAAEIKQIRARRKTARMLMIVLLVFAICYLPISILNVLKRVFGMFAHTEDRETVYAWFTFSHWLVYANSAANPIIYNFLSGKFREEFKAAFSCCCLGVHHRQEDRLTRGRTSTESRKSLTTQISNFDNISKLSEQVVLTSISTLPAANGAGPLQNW

[9] = biological target: T3, Orexin receptor type 2; test: Counterscreen assay for antagonists of the orexin 1 receptor (OX1R; HCRTR1): Fluorescence-based cell-based dose response assay for antagonists of the orexin 2 receptor (OX2R; HCRTR2), run by assay provider.; format: functional
[10] = biological target: T2, Orexin/Hypocretin receptor type 1; test: Homogeneous Time Resolved Fluorescence (HTRF)-based cell-based high throughput dose response assay for antagonists of the orexin 1 receptor (OX1R; HCRTR1). [Related pubchem assays (depositor defined):AID434989, AID435008, AID463079, AID485270, AID492963, AID492964, AID492965, AID493232, AID504717, AID504718]; format: functional
[11] = biological target: Estrogen receptor beta (Homo sapiens, UniProt Q92731);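 note: recombinant ER-beta bound to coactivator SRC1 peptide in presence of estradiol agonist; inhibitors block coactivator peptide binding and lower the FRET signal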
[12] = Trypanosoma cruzi growth suppression in host cells – NIH3T3 host cells, beta-gal luminescence, confirmation (AID 2044); format: functional, cell-based;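 note: intracellular parasites grown in NIH/3T3 mouse fibroblasts as host cells; luminescent beta-galactosidase reporter signal from transgenic T. cruzi replicating inside host cells; inhibitors lower the luminescence signal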
[13] = biological target: T4, Replicative DNA helicase DnaB (Mycobacterium tuberculosis, UniProt P9WMR3); test: DnaB intein splicing inhibitors, dose response, biochemical, cell-free fluorescence (AID 449749); format: functional
T4 sequence (P9WMR3 whole entry): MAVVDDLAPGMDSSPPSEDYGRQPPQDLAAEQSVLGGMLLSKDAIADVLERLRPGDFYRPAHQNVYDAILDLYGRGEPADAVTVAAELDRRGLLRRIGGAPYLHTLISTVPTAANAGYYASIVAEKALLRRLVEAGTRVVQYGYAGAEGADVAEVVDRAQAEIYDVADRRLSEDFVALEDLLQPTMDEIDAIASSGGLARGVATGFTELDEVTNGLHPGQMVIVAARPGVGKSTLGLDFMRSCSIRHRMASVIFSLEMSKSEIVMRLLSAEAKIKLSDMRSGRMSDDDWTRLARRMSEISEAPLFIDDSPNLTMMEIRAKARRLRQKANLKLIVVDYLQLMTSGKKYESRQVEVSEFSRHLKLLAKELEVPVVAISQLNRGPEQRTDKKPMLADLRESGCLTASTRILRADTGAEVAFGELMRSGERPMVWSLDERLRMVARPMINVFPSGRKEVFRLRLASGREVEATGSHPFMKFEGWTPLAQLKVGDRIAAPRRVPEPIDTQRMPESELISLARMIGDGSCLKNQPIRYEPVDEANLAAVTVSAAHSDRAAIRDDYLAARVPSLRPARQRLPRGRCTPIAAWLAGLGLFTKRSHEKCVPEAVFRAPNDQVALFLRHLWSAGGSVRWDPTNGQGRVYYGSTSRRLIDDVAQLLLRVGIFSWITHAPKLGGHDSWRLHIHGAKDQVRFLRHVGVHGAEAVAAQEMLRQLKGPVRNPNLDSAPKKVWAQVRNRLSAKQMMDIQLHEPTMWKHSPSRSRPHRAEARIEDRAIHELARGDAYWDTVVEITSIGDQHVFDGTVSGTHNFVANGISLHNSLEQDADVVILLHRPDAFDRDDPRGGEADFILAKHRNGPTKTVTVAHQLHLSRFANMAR

[14] = microbe, parasite or virus in culture; format: functional; conditions: Mycobacterium tuberculosis
[15] = biological target: Genome polyprotein (dengue virus type 2, UniProt P29990); test: flavivirus cap methylation enzyme inhibition – biochemical, confirmation dose response, primary screen (AID 588689); format: functional
[16] = NIH3T3 cell viability loss – ATP luminescence, mouse fibroblasts, counter-screen, dose response (AID 2010); format: functional, cell-based;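 note: cells exposed to compound for about 90 hours before reading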
[17] = tested on: Vero; test: viability of Vero cells under compound – cytotoxicity control for flavivirus capping enzyme inhibitors (AID 588742); format: functional; conditions: Chlorocebus sabaeus
[18] = biological target: T5, Protein RecA (Mycobacterium tuberculosis, UniProt P9WHJ3); test: Fluorescence Cell-Free Homogeneous Dose Retest to Identify Inhibitors of RecA-Intein Splicing Activity. [Related pubchem assays (depositor defined):AID2097, AID2223, AID489010, AID492950]; format: functional
T5 sequence (P9WHJ3 whole entry): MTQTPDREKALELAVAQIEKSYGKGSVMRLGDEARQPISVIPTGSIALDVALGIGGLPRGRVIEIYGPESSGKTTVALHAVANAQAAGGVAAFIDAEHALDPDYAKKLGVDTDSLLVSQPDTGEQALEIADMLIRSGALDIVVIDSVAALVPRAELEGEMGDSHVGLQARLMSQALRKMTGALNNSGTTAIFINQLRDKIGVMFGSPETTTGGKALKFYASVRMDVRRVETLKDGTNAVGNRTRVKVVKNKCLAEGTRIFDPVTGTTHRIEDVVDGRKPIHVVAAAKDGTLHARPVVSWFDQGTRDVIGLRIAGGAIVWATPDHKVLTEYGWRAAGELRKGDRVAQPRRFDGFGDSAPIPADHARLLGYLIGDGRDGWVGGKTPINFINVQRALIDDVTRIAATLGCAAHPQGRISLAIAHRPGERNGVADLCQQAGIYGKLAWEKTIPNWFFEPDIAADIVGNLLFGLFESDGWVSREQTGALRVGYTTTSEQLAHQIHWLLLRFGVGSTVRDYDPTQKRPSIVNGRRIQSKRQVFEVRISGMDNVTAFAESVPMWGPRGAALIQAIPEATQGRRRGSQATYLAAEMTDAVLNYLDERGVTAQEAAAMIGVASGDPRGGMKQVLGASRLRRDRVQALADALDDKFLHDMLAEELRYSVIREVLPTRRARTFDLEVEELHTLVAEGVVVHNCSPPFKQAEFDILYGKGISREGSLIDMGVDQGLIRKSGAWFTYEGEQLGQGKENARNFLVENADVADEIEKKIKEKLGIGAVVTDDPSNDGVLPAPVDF

Genome polyprotein, sequence (P29990 2492-3391 limits assumed): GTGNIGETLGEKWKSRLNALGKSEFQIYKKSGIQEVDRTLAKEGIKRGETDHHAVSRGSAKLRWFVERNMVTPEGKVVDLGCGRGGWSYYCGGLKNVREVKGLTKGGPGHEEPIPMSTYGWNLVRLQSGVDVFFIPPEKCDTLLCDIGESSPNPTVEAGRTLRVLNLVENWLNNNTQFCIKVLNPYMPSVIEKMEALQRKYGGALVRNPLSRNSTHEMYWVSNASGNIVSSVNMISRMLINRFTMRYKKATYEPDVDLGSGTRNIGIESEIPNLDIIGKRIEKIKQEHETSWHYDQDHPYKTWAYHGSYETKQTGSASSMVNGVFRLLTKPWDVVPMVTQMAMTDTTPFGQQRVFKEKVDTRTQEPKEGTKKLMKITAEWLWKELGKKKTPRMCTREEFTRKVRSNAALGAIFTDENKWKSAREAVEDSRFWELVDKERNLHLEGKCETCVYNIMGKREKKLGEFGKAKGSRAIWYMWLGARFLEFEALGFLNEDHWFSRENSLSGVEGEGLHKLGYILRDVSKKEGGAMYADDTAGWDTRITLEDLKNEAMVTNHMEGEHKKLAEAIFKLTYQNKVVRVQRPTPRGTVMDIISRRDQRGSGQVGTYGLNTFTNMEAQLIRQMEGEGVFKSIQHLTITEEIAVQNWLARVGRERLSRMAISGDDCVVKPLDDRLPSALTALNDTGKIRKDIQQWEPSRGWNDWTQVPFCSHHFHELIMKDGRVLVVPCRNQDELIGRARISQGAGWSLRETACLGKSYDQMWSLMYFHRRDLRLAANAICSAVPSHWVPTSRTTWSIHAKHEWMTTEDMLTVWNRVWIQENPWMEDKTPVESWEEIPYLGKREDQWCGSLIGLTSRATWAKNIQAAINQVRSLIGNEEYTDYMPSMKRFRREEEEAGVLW
Estrogen receptor beta, sequence (Q92731 whole entry): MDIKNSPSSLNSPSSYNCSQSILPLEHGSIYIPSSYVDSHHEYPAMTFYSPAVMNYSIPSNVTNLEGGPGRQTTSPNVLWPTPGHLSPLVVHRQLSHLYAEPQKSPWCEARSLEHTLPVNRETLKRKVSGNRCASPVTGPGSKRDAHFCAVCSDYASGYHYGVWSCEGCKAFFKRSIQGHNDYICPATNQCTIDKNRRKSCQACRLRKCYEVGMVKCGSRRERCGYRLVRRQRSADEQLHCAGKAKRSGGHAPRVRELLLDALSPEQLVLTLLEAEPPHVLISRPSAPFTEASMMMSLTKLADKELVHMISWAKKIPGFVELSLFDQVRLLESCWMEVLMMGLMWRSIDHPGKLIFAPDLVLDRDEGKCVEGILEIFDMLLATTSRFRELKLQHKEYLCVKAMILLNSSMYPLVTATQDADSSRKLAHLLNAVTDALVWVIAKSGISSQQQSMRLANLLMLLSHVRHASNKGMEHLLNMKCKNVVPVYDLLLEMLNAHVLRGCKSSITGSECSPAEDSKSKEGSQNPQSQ

SMILES	EC50 [1]	EC50 [2]	EC50 [3]	IC50 [4]	IC50 [5]	IC50 [6]	IC50 [7]	IC50 [8]	IC50 [9]	IC50 [10]	further results
COc1ccc(CNc2nc3ccccc3n2CCN2CCOCC2)cc1	> 54.7 µM (inactive)	> 54.7 µM (inactive)	> 55.9 µM (inactive)	> 89.1 µM (inactive)	–	–	–	–	–	–	–
C=CCNc1nc(N(c2ccccc2)c2ccccc2)nc(-n2ccnc2)n1	–	–	–	–	> 66.2 µM (inactive)	> 49.8 µM (inactive)	> 49.8 µM (inactive)	> 50 µM (inactive)	> 88.8 µM (inactive)	6.47 µM (active)	–
Cc1cc(NC(=O)CCC(=O)N(Cc2cccs2)C(C(=O)NC2CCCC2)c2ccccc2)no1 (configuration not stated)	–	–	–	–	> 66.2 µM (inactive)	> 49.8 µM (inactive)	12.7 µM (inactive)	> 50 µM (inactive)	42.4 µM (inactive)	0.315 µM (active)	–
CC(=O)Nc1cc2c(cc1C(=O)c1ccccc1)OCCO2	> 54.7 µM (inactive)	> 54.7 µM (inactive)	> 54.7 µM (inactive)	> 89.2 µM (inactive)	–	–	–	–	–	–	IC50 [11]: > 50 µM (not active)
O=C(c1cc([N+](=O)[O-])ccc1N1CCOCC1)N1CCN(c2ccc([N+](=O)[O-])cc2)CC1	3.16 µM (active)	3.64 µM (active)	1.09 µM (active)	> 89.2 µM (inactive)	–	–	–	–	–	–	–
O=[N+]([O-])c1cc([N+](=O)[O-])c2c(Nc3ccccc3)n(-c3ccccc3)[n+]([O-])c2c1	–	–	–	–	–	–	–	–	–	–	EC50 [12]: 0.313 µM (active); AC50 [13]: 5.84 µM (active); CC50 [14]: 29.7 µM (active); IC50 [15]: 30.9 µM (active); EC50 [16]: > 60 µM (not active); CC50 [17]: 38.9 µM (active); EC50 [18]: 1.97 µM (active)
